These results are taken from patent US10654818B2, “Furane derivatives as inhibitors of ATAD2” (BAYER PHARMA AKTIENGESELLSCHAFT, priority 2015, dated 2020).

For the assay, the target named is T1, recombinant, N-terminally GST-tagged ATAD2 bromodomain amino acids 981-1108 (Homo sapiens, UniProt Q6PL18).
T1 construct: ATAD2 bromodomain amino acids 981-1108; made in house; host or cells: E. coli
T1 sequence (Q6PL18 981-1108): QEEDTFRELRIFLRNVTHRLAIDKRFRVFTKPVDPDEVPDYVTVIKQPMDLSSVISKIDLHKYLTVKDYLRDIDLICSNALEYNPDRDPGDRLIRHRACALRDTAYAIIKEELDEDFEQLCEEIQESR
The assay can be described thus: TR-FRET assay: disruption of the interaction between ATAD2 and acetylated Histone H4 (Ac-H4) peptide. The class given is binding. The settings on record: inhibition of ATAD2/Ac-H4 complex formation; 10 nM ATAD2, 50 nM Ac-H4 peptide. The text has this:
The ability of the compounds described in the present invention to disrupt the interaction between ATAD2 and acetylated Histone H4 (Ac-H4) was used as quantitative measure of their ATAD2-binding affinities.
To this end a TR-FRET assay which detects the binding of an Ac-H4-derived synthetic peptide (purchased from e.g. Biosyntan (Berlin, Germany)) of sequence HSGRGKGGGGKGLGK(Ac)GGAKRHRK-Biotin to recombinant, N-terminally GST-tagged ATAD2 bromodomain amino acids 981-1108. The protein was produced in-house via E. coli expression followed by GSH-Sepharose affinity- and Superdex S200-size exclusion chromatography purification.
Typically, 11 different concentrations of each compound (0.1 nM, 0.33 nM, 1.1 nM, 3.8 nM, 13 nM, 44 nM, 0.15 μM, 0.51 μM, 1.7 μM, 5.9 μM and 20 μM) were tested in duplicate within the same microtiter plate. To this end, 100-fold concentrated compound solutions (in DMSO) were previously prepared with a Precision Pippeting System (BioTek) by serial dilution (1:3.4) of 2 mM stocks in clear, low-volume 384-well microtiter source plates (Greiner Bio-One). Subsequently, 50 nl of compounds were transferred into black, low-volume test plates from the same supplier using a Hummingbird capillary based liquid handling instrument (Digilab). Tests were started by the addition of 2 μl of 2.5-fold concentrated ATAD2 solution (25 nM=10 nM final concentration in the 5 μl assay volume) in aqueous assay buffer [50 mM HEPES pH 7.5, 50 mM potassium fluoride (KF), 100 mM sodium chloride (NaCl), 0.25 mM CHAPS, 0.05% bovine serum albumine (BSA) and 1 mM dithiothreitol (DTT)] to the compounds in the test plate with a Multidrop dispenser (Thermo-Fisher). Test plates were then incubated 10′ at 22° C., in order to allow pre-equilibration of putative compound-ATAD2 complexes. Subsequently, 3 μl of a 1.67-fold concentrated solution containing Ac-H4 peptide (83.5 nM=50 nM final concentration) and TR-FRET detection reagents [16.7 nM Anti-GST-XL665 (Cisbio), =10 nM final concentration and 4.17 nM Lance EU W-1024 Streptavidin Europium Chelate (Perkin-Elmer)=2.5 nM final concentration were dispensed into the plates.
The mixture was further incubated in the dark for 1 hour at 22° C. Finally the inhibition of the formation of ATAD2/Ac-H4 complexes was assessed by measurement of the resonance energy transfer from the Streptavidin-Eu-Chelate to the anti-GST-XL665 antibody present in the reaction. To this end, the fluorescence emissions at 622 nm and 665 nm after excitation at 337 nm were measured in a TR-FRET reader, e.g. a Rubystar or Pherastar (both from BMG Lab Technologies) or a Viewlux (Perkin-Elmer) and the ratio of the emissions at 665 nm and at 622 nm was taken as indicator for the amount of ATAD2/Ac-H4 complexes in equilibrium.
The data were normalized using two sets of control wells (16 each). The first accounted for 100% ATAD2/Ac-H4 binding (0% inhibition), and contained all reaction components but DMSO instead of inhibitors. The second represented 0% ATAD2/Ac-H4 binding (100% inhibition), and included all assay components except ATAD2. IC50 values were calculated by fitting the normalized inhibition data to a 4-parameter logistic equation using either Screener software (Genedata) or a Bayer-proprietary analysis software.
(Time-resolved FRET reads energy transfer from a long-lived donor to a nearby acceptor.)

The structures appear in SMILES notation.

With `Cc1ccc([C@@H](C)NCc2ccc(-c3ccc(Cl)c(C(=O)N[C@H](Cc4ccc(C#N)cc4)[C@@H](C)O)c3)o2)cc1` [Example 16, 2-chloro-N-[(2R,3R)-1-(4-cyanophenyl)-3-hydroxybutan-2-yl]-5-[5-({[(1R)-1-(4-methylphenyl)ethyl]amino}methyl)-2-furyl]benzamide], the IC50 was determined as 570 nM.

For the compound `Cc1ccc([C@@H](C)NCc2ccc(-c3ccc(Cl)c(C(=O)N[C@H](Cc4ccc(C#N)cc4)C(N)=O)c3)o2)cc1` [Example 2, Nα-{2-chloro-5-[5-({[(1R)-1-(4-methylphenyl)ethyl]amino}methyl)-2-furyl]benzoyl}-4-cyano-D-phenylalaninamide], the IC50 amounted to 949 nM.

As for `Cc1ccc([C@@H](C)NCc2ccc(-c3ccc(Cl)c(C(=O)N[C@@H](CO)Cc4ccc(C(N)=O)cc4)c3)o2)cc1` [Example 48, N-[(2R)-1-(4-carbamoylphenyl)-3-hydroxypropan-2-yl]-2-chloro-5-[5-({[(1R)-1-(4-methylphenyl)ethyl]amino}methyl)-2-furyl]benzamide], the IC50 worked out at 1080 nM.

With `Cc1ccc([C@@H](C)NCc2ccc(-c3ccc(Cl)c(C(=O)N[C@@H](CC(=O)NCCO)Cc4ccc(C#N)cc4)c3)o2)cc1` [Example 7, 2-chloro-N-{(2R)-1-(4-cyanophenyl)-4-[(2-hydroxyethyl)amino]-4-oxobutan-2-yl}-5-[5-({[(1R)-1-(4-methylphenyl)ethyl]amino}methyl)-2-furyl]benzamide], the IC50 worked out at 832 nM.

Regarding `Cc1ccc([C@@H](C)NCc2ccc(-c3ccc(Cl)c(C(=O)N[C@@H](CNCCO)Cc4ccc(C#N)cc4)c3)o2)cc1` [Example 23, 2-chloro-N-{(2R)-1-(4-cyanophenyl)-3-[(2-hydroxyethyl)amino]propan-2-yl}-5-[5-({[(1R)-1-(4-methylphenyl)ethyl]amino}methyl)-2-furyl]benzamide], the IC50 was determined as 561 nM.

As to `CC(C)(NCc1ccc(-c2ccc(Cl)c(C(=O)N[C@@H](CN)Cc3ccc(C#N)cc3)c2)o1)c1ccc(C(F)(F)F)cc1` [Example 74, N-[(2R)-1-amino-3-(4-cyanophenyl)propan-2-yl]-2-chloro-5-{5-[({2-[4-(trifluoro-methyl)phenyl]propan-2-yl}amino)methyl]-2-furyl}benzamide], the IC50 came to 671 nM.

In the case of `Cc1ccc([C@@H](C)NCc2ccc(-c3ccc(Cl)c(C(=O)N[C@@H](CC(=O)N(C)C)Cc4ccc(C#N)cc4)c3)o2)cc1` [Example 1, 2-Chloro-N-[(2R)-1-(4-cyanophenyl)-4-(dimethylamino)-4-oxobutan-2-yl]-5-[5-({[(1R)-1-(4-methylphenyl)ethyl]amino}methyl)furan-2-yl]benzamide], the IC50 is 740 nM.

Take `COc1cc(Cl)c(C(=O)N[C@@H](CO)Cc2ccc(C#N)c(C)c2)cc1-c1ccc(CN[C@H](C)c2ccc(C)cc2)o1` [Example 82]: the IC50 is 350 nM.

Turning to `Cc1ccc([C@@H](C)NCc2ccc(-c3ccc(Cl)c(C(=O)N[C@@H](CNS(C)(=O)=O)Cc4ccc(C#N)cc4)c3)o2)cc1` [Example 54, 2-chloro-N-{(2R)-1-(4-cyanophenyl)-3-[(methylsulfonyl)amino]propan-2-yl}-5-[5-({[(1R)-1-(4-methylphenyl)ethyl]amino}methyl)-2-furyl]benzamide], the half-inhibitory concentration (IC50) was found to be 705 nM.

In the case of `Cc1ccc([C@@H](C)NCc2ccc(-c3ccc(Cl)c(C(=O)N[C@@H](CNC(=O)CC4CCNCC4)Cc4ccc(C#N)cc4)c3)o2)cc1` [Example 57, 2-chloro-N-{(2R)-1-(4-cyanophenyl)-3-[(piperidin-4-ylacetyl)amino]propan-2-yl}-5-[5-({[(1R)-1-(4-methylphenyl)ethyl]amino}methyl)-2-furyl]benzamide], the IC50 came out at 520 nM.

As to `CCN1CCC(NC[C@@H](Cc2ccc(C#N)cc2)NC(=O)c2cc(-c3ccc(CN[C@H](C)c4ccc(C)cc4)o3)ccc2Cl)CC1` [Example 62], the concentration for half-maximal inhibition (IC50) was found to be 332 nM.

Regarding `Cc1ccc([C@@H](C)NCc2ccc(-c3ccc(Cl)c(C(=O)N[C@@H](CCN4CCN(C)C[C@@H]4C)Cc4ccc(C#N)cc4)c3)o2)cc1` [Example 31, 2-chloro-N-{(2R)-1-(4-cyanophenyl)-4-[(2S)-2,4-dimethylpiperazin-1-yl]butan-2-yl}-5-[5-({[(1R)-1-(4-methylphenyl)ethyl]amino}methyl)-2-furyl]benzamide], the IC50 was 297 nM.

In the case of `Cc1ccc([C@@H](C)NCc2ccc(-c3ccc(Cl)c(C(=O)N[C@@H](CC(=O)N4CCN(C)CC4)Cc4ccc(C#N)cc4)c3)o2)cc1` [Example 11, 2-chloro-N-[(2R)-1-(4-cyanophenyl)-4-(4-methylpiperazin-1-yl)-4-oxobutan-2-yl]-5-[5-({[(lR)-1-(4-methylphenyl)ethyl]amino}methyl)-2-furyl]benzamide], the IC50 is 822 nM.

Turning to `Cc1ccc([C@@H](C)NCc2ccc(-c3ccc(Cl)c(C(=O)N[C@H](Cc4ccc(C#N)cc4)C(=O)NC4CCN(C)CC4)c3)o2)cc1` [Example 30, Nα-{2-chloro-5-[5-({[(1R)-1-(4-methylphenyl)ethyl]amino}methyl)-2-furyl]benzoyl}-4-cyano-N-(1-methylpiperidin-4-yl)-D-phenylalaninamide], the half-maximal inhibitory concentration (IC50) was determined as 253 nM.

For the compound `Cc1ccc([C@@H](C)NCc2ccc(-c3ccc(Cl)c(C(=O)N[C@@H](CCN[C@@H]4CCN(C)C4)Cc4ccc(C#N)cc4)c3)o2)cc1` [Example 34, 2-chloro-N-[(2R)-1-(4-cyanophenyl)-4-{[(3R)-1-methylpyrrolidin-3-yl]amino}butan-2-yl]-5-[5-({[(1R)-1-(4-methylphenyl)ethyl]amino}methyl)-2-furyl]benzamide], the concentration for half-maximal inhibition (IC50) was 423 nM.

With `COc1cc(Cl)c(C(=O)N[C@@H](CN[C@H]2CC[C@@H](N)CC2)Cc2ccc(C#N)c(C)c2)cc1-c1ccc(CN[C@H](C)c2ccc(C)cc2)o1` [Example 88, N-[(2R)-1-[(4-aminocyclohexyl)amino]-3-(4-cyano-3-methylphenyl)propan-2-yl]-2-chloro-4-methoxy-5-[5-({[(1R)-1-(4-methylphenyl)ethyl]amino}methyl)-2-furyl]-benzamide], the half-inhibitory concentration (IC50) came to 128 nM.

As to `COc1cc(Cl)c(C(=O)N[C@@H](CN)Cc2ccc(C#N)c(C)c2)cc1-c1ccc(CN[C@H](C)c2ccc(C)cc2)o1` [Example 84, N-[(2R)-1-amino-3-(4-cyano-3-methylphenyl)propan-2-yl]-2-chloro-4-methoxy-5-[5-({[(1R)-1-(4-methylphenyl)ethyl]amino}methyl)-2-furyl]benzamide], the IC50 is 270 nM.

Consider `COc1cc(Cl)c(C(=O)N[C@@H](CN)Cc2ccc(C#N)cc2)cc1-c1ccc(CN[C@H](C)c2ccc(C)cc2)o1` [Example 83, N-[(2R)-1-amino-3-(4-cyanophenyl)propan-2-yl]-2-chloro-4-methoxy-5-[5-({[(1R)-1-(4-methylphenyl)ethyl]amino}methyl)-2-furyl]benzamide], for which the IC50 was determined as 233 nM.

Take `Cc1ccc([C@@H](C)NCc2ccc(-c3ccc(Cl)c(C(=O)N[C@H]4CNCC[C@H]4c4ccc(C#N)cc4)c3)o2)cc1` (stereo in doubt) [Example 76, Cis-chloro-N-[4-(4-cyanophenyl)piperidin-3-yl]-5-[5-({[(1R)-1-(4-methylphenyl)-ethyl]amino}methyl)-2-furyl]benzamide]: the IC50 worked out at 441 nM.

`Cc1ccc(C(C)NCc2ccc(-c3ccc(Cl)c(C(=O)N[C@@H](Cc4ccc(C#N)cc4)c4ncc[nH]4)c3)o2)cc1` (stereo in doubt) [Example 19, 2-chloro-N-[2-(4-cyanophenyl)-1-(1H-imidazol-2-yl)ethyl]-5-[5-({[(1S)-1-(4-methylphenyl)ethyl]amino}methyl)-2-furyl]benzamide]: the IC50 worked out at 640 nM.

As usually defined, the IC50 is the concentration that gives 50% inhibition.
